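Test compounds were applied to cells in 96-well plates for 48 hours at 5 doses. The concentration for 50% growth inhibition is given as GI50.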 Active and inactive are the calls of the source. No stated cut-off is given here; in the data, active = GI50 up to about 1.1 µM and inactive = higher.
Experiments:
Assay in all cases: NCI anticancer screen, dose series, 48 h
DU-145 = system: DU-145
M14 = system: M14
EKVX = system: EKVX
TK-10 = system: TK-10
HOP-92 = system: HOP-92
MDA-MB-231 = system: MDA-MB-231
K562 = system: K562
HOP-62 = system: HOP-62
SNB-75 = system: SNB-75
U-251 = system: U-251
HL-60 = system: HL-60
SK-OV-3 = system: SK-OV-3
NCI-H522 = system: NCI-H522
786-0 = system: 786-0
MDA-N = system: MDA-N
SW-620 = system: SW-620
MOLT-4 = system: MOLT-4
ACHN = system: ACHN
UO-31 = system: UO-31
RXF 393 = system: RXF 393

Measured: GI50

CC[C@H](NC1=C(Cl)C(=O)c2c(O)ccc(O)c2C1=O)C(=O)OC
inactive: DU-145 > 10 µM | M14 3.72 µM | EKVX > 10 µM | TK-10 > 10 µM | HOP-92 > 10 µM | MDA-MB-231 3.33 µM | K562 3.94 µM | HOP-62 > 10 µM | SNB-75 > 10 µM | U-251 6.12 µM | HL-60 3.79 µM | SK-OV-3 > 10 µM | NCI-H522 3.53 µM | 786-0 4.69 µM | MDA-N 6.55 µM | SW-620 5.79 µM | MOLT-4 2.6 µM | ACHN > 10 µM

COc1cccc2cc(C(=O)Nc3ccccc3)c(=N)oc12
inactive: DU-145 > 100 µM | M14 > 100 µM | UO-31 > 48.1 µM | EKVX > 100 µM | TK-10 > 100 µM | HOP-92 22.2 µM | MDA-MB-231 13 µM | K562 > 100 µM | HOP-62 > 58.5 µM | SNB-75 16.7 µM | U-251 67.6 µM | SK-OV-3 > 64 µM | NCI-H522 > 28.2 µM | 786-0 15.7 µM | RXF 393 > 100 µM | MDA-N > 100 µM | SW-620 > 100 µM | MOLT-4 > 100 µM | ACHN > 100 µM

Oc1ccc(Cl)cc1/N=N\c1c(O)ccc2ccccc12
inactive: M14 > 100 µM | UO-31 > 100 µM | EKVX > 100 µM | TK-10 > 100 µM | HOP-92 > 100 µM | MDA-MB-231 > 100 µM | K562 > 100 µM | HOP-62 > 100 µM | SNB-75 > 100 µM | U-251 > 100 µM | HL-60 78.9 µM | SK-OV-3 > 100 µM | NCI-H522 59.4 µM | 786-0 > 100 µM | RXF 393 > 100 µM | MDA-N > 100 µM | SW-620 > 100 µM | MOLT-4 35 µM | ACHN > 100 µM

N#CC(C#N)/N=N/c1ccc(-c2nc3ccccc3o2)cc1
inactive: DU-145 13.3 µM | M14 15.2 µM | UO-31 13 µM | EKVX 11.7 µM | TK-10 11 µM | HOP-92 6.81 µM | MDA-MB-231 17.8 µM | K562 8.61 µM | HOP-62 16.6 µM | SNB-75 24.4 µM | U-251 14.3 µM | HL-60 5.48 µM | SK-OV-3 18.6 µM | NCI-H522 5.02 µM | 786-0 14.4 µM | MDA-N 17.2 µM | SW-620 11.2 µM | MOLT-4 7.82 µM | ACHN 12.9 µM

CCOC(=O)C(C(=O)COC(C)(C)C)[C@@H]1C=C[C@H](OC(C)=O)C1 (some centres undefined)
inactive: M14 > 100 µM | UO-31 > 100 µM | EKVX > 100 µM | MDA-MB-231 > 100 µM | K562 > 100 µM | HOP-62 > 100 µM | SNB-75 > 100 µM | U-251 > 100 µM | SK-OV-3 > 100 µM | 786-0 > 100 µM | MDA-N > 100 µM | SW-620 > 100 µM | MOLT-4 65.2 µM | ACHN > 100 µM

COC(=O)c1sc2ncc3c(c2c1N)CC(C)CC3 (centres undefined)
inactive: DU-145 > 100 µM | M14 > 100 µM | UO-31 > 100 µM | EKVX > 100 µM | TK-10 > 100 µM | HOP-92 > 100 µM | MDA-MB-231 > 100 µM | K562 > 100 µM | HOP-62 > 100 µM | SNB-75 41.4 µM | U-251 > 100 µM | SK-OV-3 > 100 µM | NCI-H522 > 100 µM | 786-0 81.3 µM | RXF 393 70.6 µM | MDA-N > 100 µM | SW-620 > 100 µM | MOLT-4 > 100 µM | ACHN > 100 µM

COc1ccc(-n2c(C)nc3ccc(NC4OCC(OC(C)=O)C(OC(C)=O)C4OC(C)=O)cc3c2=O)cc1 (centres undefined)
inactive: DU-145 > 100 µM | UO-31 > 100 µM | EKVX > 100 µM | TK-10 > 100 µM | MDA-MB-231 > 100 µM | K562 > 100 µM | HOP-62 > 100 µM | SNB-75 > 100 µM | U-251 > 100 µM | HL-60 32.4 µM | NCI-H522 > 100 µM | 786-0 > 100 µM | RXF 393 > 100 µM | MDA-N > 100 µM | SW-620 > 100 µM | MOLT-4 > 100 µM | ACHN > 100 µM

COc1ccc(N(CN2C(=O)CCC2OC)C(C)=O)cc1 (centres undefined)
inactive: DU-145 > 100 µM | M14 > 100 µM | UO-31 > 100 µM | EKVX > 100 µM | TK-10 > 100 µM | HOP-92 > 100 µM | MDA-MB-231 > 100 µM | K562 > 100 µM | HOP-62 > 100 µM | SNB-75 > 100 µM | U-251 > 100 µM | SK-OV-3 > 100 µM | NCI-H522 > 100 µM | 786-0 > 100 µM | RXF 393 > 100 µM | MDA-N > 100 µM | SW-620 > 100 µM | MOLT-4 > 100 µM | ACHN > 100 µM

COC(=O)NN(C(=O)OC)c1c(-c2ccccc2)nc(SC)n1N
inactive: DU-145 > 100 µM | M14 > 100 µM | UO-31 > 100 µM | EKVX > 100 µM | TK-10 > 100 µM | MDA-MB-231 > 100 µM | K562 > 100 µM | HOP-62 > 100 µM | SNB-75 > 100 µM | U-251 > 100 µM | HL-60 > 100 µM | NCI-H522 > 100 µM | 786-0 > 100 µM | RXF 393 > 100 µM | MDA-N > 100 µM | SW-620 > 100 µM | MOLT-4 > 100 µM | ACHN > 100 µM

CC(=O)CC1(O)C(=O)c2c(Br)sc(Br)c2C1=O
inactive: DU-145 42.8 µM | M14 17.8 µM | UO-31 32.2 µM | EKVX 20 µM | TK-10 25.9 µM | HOP-92 18.8 µM | K562 32.8 µM | HOP-62 29 µM | SNB-75 59.7 µM | U-251 24 µM | HL-60 20.6 µM | SK-OV-3 36.8 µM | NCI-H522 18.4 µM | 786-0 23.7 µM | RXF 393 24.7 µM | MDA-N 22.3 µM | SW-620 25.1 µM | MOLT-4 32.4 µM | ACHN 34.3 µM

O=C(O)CCCCC1CCSS1 (stereo not drawn) [LIPOIC ACID, ALPHA]
inactive: DU-145 > 100 µM | M14 77.1 µM | UO-31 > 100 µM | EKVX > 100 µM | TK-10 > 100 µM | HOP-92 30 µM | MDA-MB-231 > 100 µM | K562 > 100 µM | HOP-62 > 100 µM | SNB-75 93.8 µM | U-251 > 100 µM | HL-60 34.3 µM | NCI-H522 > 100 µM | 786-0 > 100 µM | MDA-N > 100 µM | SW-620 > 100 µM | MOLT-4 > 100 µM | ACHN > 100 µM

O=C1NN=C(c2ccc(Cl)cc2)CC1C1C(=O)N(c2ccccc2)N=C1c1ccccc1 (centres undefined)
inactive: DU-145 53.7 µM | M14 37.8 µM | UO-31 21.5 µM | EKVX 35 µM | TK-10 35.6 µM | MDA-MB-231 35.9 µM | K562 30 µM | HOP-62 32 µM | SNB-75 23.2 µM | U-251 33 µM | HL-60 37.2 µM | SK-OV-3 39.5 µM | NCI-H522 23.6 µM | 786-0 24.7 µM | RXF 393 22.5 µM | MDA-N 34.8 µM | SW-620 30.5 µM | MOLT-4 28.1 µM | ACHN 29.2 µM

CSCCCN(CCCSC)CCCSC
inactive: DU-145 > 100 µM | M14 > 100 µM | UO-31 > 100 µM | EKVX > 100 µM | MDA-MB-231 > 100 µM | K562 97.5 µM | HOP-62 > 100 µM | SNB-75 48.5 µM | U-251 > 100 µM | HL-60 13.5 µM | SK-OV-3 > 100 µM | NCI-H522 66.7 µM | 786-0 > 100 µM | MDA-N > 100 µM | SW-620 > 100 µM | MOLT-4 24.2 µM

N#Cc1ccc(CSC2=C(c3ccc(Cl)cc3)S/C(=C3\SC(SCc4ccc(C#N)cc4)=C(c4ccc(Cl)cc4)S3)S2)cc1
inactive: DU-145 > 100 µM | M14 > 100 µM | EKVX > 100 µM | TK-10 > 100 µM | MDA-MB-231 > 100 µM | K562 > 100 µM | HOP-62 > 100 µM | U-251 > 100 µM | HL-60 > 100 µM | SK-OV-3 > 100 µM | NCI-H522 > 100 µM | 786-0 > 100 µM | RXF 393 > 100 µM | MDA-N > 100 µM | SW-620 > 100 µM | MOLT-4 > 100 µM | ACHN > 100 µM

CC(C)(C)c1cc(C2=NNC(c3ccccc3)C2)cc(C(C)(C)C)c1O (centres undefined)
inactive: DU-145 15.5 µM | M14 17.2 µM | UO-31 15 µM | EKVX 16.1 µM | TK-10 15.9 µM | HOP-92 14.9 µM | MDA-MB-231 14.2 µM | HOP-62 17.1 µM | SNB-75 10.3 µM | U-251 15.5 µM | SK-OV-3 18.5 µM | NCI-H522 14.7 µM | 786-0 14.3 µM | RXF 393 10.1 µM | MDA-N 12.6 µM | SW-620 15.7 µM | MOLT-4 16.6 µM | ACHN 16.3 µM
